Test results as given in PubChem BioAssay (NCI).
Several values for one entry are separate records, joined by “and”; a condition that tells them apart may be missing. Equal entries are not always repeated.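 All cell lines were grown in 96-well plates and treated with compound for 48 hours. At the GI50, growth is halved. TGI denotes the concentration required for complete inhibition of growth.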

Key:
Test in all cases: NCI tumour cell line growth inhibition, 48 h
KM12 colon = system: KM12 colon
HOP-92 NSCLC = system: HOP-92 NSCLC
A498 renal = system: A498 renal
CAKI-1 renal = system: CAKI-1 renal
IGROV1 ovarian = system: IGROV1 ovarian
UACC-62 melanoma = system: UACC-62 melanoma
U251 CNS = system: U251 CNS
SK-OV-3 ovarian = system: SK-OV-3 ovarian
OVCAR-8 ovarian = system: OVCAR-8 ovarian
CCRF-CEM leukemia = system: CCRF-CEM leukemia

Structure (SMILES) | GI50 (KM12 colon) | TGI (KM12 colon) | GI50 (HOP-92 NSCLC) | TGI (HOP-92 NSCLC) | GI50 (A498 renal) | TGI (A498 renal) | GI50 (CAKI-1 renal) | TGI (CAKI-1 renal) | GI50 (IGROV1 ovarian) | TGI (IGROV1 ovarian) | GI50 (UACC-62 melanoma) | TGI (UACC-62 melanoma) | GI50 (U251 CNS) | TGI (U251 CNS) | GI50 (SK-OV-3 ovarian) | TGI (SK-OV-3 ovarian) | GI50 (OVCAR-8 ovarian) | TGI (OVCAR-8 ovarian) | GI50 (CCRF-CEM leukemia) | TGI (CCRF-CEM leukemia)
Cn1cc(-c2csc(-c3c[nH]c4ccc(F)cc34)n2)c2cnccc21 | 1.83 µM | 3.49 µM | 1.49 µM | 3.09 µM | 1.87 µM | 3.31 µM | 1.65 µM | 3.05 µM | 1.59 µM | 3.09 µM | 1.83 µM | 3.39 µM | 1.87 µM | 3.4 µM | 1.73 µM | 3.16 µM |  |  |  | 
COc1cc(-n2cc(-c3ccc(F)cc3)[nH]c2=O)cc(OC)c1OC | > 100 µM | > 100 µM | > 100 µM | > 100 µM |  |  | > 100 µM | > 100 µM | > 100 µM | > 100 µM | > 100 µM | > 100 µM | 71.6 µM | > 100 µM | > 100 µM | > 100 µM | > 100 µM | > 100 µM |  | 
O=C1Nc2ccccc2/C1=N\[O-].O=C1Nc2ccccc2/C1=N\[O-].[Cu+2] | > 100 µM | > 100 µM |  |  | > 100 µM | > 100 µM | > 100 µM | > 100 µM | > 100 µM | > 100 µM | > 100 µM | > 100 µM | > 100 µM | > 100 µM | > 100 µM | > 100 µM | > 100 µM | > 100 µM | > 100 µM | > 100 µM
COc1ccc(C(=O)/C=C/c2cc(-c3cc(OC)c(OC)c(OC)c3)n[nH]2)cc1OC | 1.07 µM | 2.41 µM |  |  | 1.48 µM | 2.98 µM | 2.2 µM | 5.46 µM | 1.8 µM | 3.41 µM | 1.74 µM | 3.22 µM | 1.23 µM | 2.48 µM | 2.79 µM | 7.83 µM | 1.32 µM | 2.73 µM | 0.626 µM | 3.93 µM
C=CCCCCOc1ccccc1-c1cnc(OCCCCC=C)n1C | 3.3 µM | 13.1 µM | 1.81 µM | 19.7 µM | 2.1 µM | 10.2 µM | 4.36 µM | 23.8 µM | 4.64 µM | 20.1 µM | 3.93 µM | 17.4 µM |  |  | 3.96 µM | 19.7 µM | 4.23 µM | 17.2 µM | 4.27 µM | 20.4 µM
CCN1CCC(O)(c2ccc(OC)cc2)C(C(=O)c2ccc(OC)cc2)C1 (stereo not given) |  | 42.1 µM |  |  |  |  |  | 31.3 µM |  | > 100 µM |  | 32.2 µM |  | 30.5 µM |  | > 100 µM |  | 43.4 µM |  | 
COC1(OC)C(N(C)C)=C(Cl)C(=O)/C1=C/C=O |  |  |  | > 100 µM |  | > 100 µM |  | > 100 µM |  | > 100 µM |  | > 100 µM |  | > 100 µM |  | > 100 µM |  | > 100 µM |  | 98.2 µM
O=C(c1ccccc1Br)C(F)(F)F |  | > 100 µM |  |  |  | > 100 µM |  | > 100 µM |  | > 100 µM |  | > 100 µM |  | > 100 µM |  | > 100 µM |  | > 100 µM |  | > 100 µM
N#C/C1=C(\N)CCSSSC1 |  | > 100 µM |  | 95.6 µM |  | 58 µM |  | > 100 µM |  | > 100 µM |  |  |  | > 100 µM |  | > 100 µM |  | 43.2 µM |  | > 100 µM
O=C1/C(=C/c2ccc3c(c2)OCO3)SC2C=Nc3ccccc3N12 (stereo not given) |  | > 100 µM |  | > 100 µM |  | > 100 µM |  | > 100 µM |  | > 100 µM |  | > 100 µM |  | > 100 µM |  |  |  | > 100 µM |  | 
C=C(Cl)C(Br)(CCl)CCC(Br)C(C)(C)Cl (stereo not given) | 2.94 µM | 9.46 µM |  |  |  | 35.3 µM | 3.69 µM | 8.08 µM and 10.2 µM | 2.13 µM | 4.16 µM | 2.17 µM | 6.83 µM | 2.74 µM | 6.93 µM |  | 27.1 µM | 2.26 µM | 5.69 µM | 0.223 µM | 6.34 µM and 1.38 µM
O=C(Nc1ccncc1)C(=O)c1cn(S(=O)(=O)c2ccc(F)cc2)c2ccccc12 | 1.49 µM | > 100 µM |  |  | 6.57 µM | 63.2 µM | 2.19 µM | 10.9 µM | 4.23 µM | > 100 µM | 3.4 µM | > 100 µM | 3.48 µM | > 100 µM | 22.3 µM | 85.9 µM | 4.33 µM | > 100 µM | 6.21 µM | > 100 µM
O=C1/C(=C/c2cccc(Cl)c2Cl)N=C(c2ccccc2)N1C1CC1 | 11.9 µM | 34.4 µM |  |  |  |  | 14.8 µM | 39.5 µM | 19.7 µM | > 50 µM | 9.2 µM | 19.5 µM | 12.6 µM | 34.7 µM |  |  | 26.5 µM | > 50 µM |  | 
CC[C@H]1[C@@H]2C=C[C@@H]3[C@H]4C/C=C\C(=O)NCCC[C@@H]5NC(=O)/C(=C(O)/C=C/[C@@H]4C[C@@H]3[C@H]2C[C@H]1C)C5=O | 3.03 µM | 9.88 µM | 1.41 µM | 2.82 µM | 1.67 µM | 3.08 µM |  |  | 0.252 µM | 0.756 µM | 1.66 µM | 3.17 µM | 1.82 µM | 3.33 µM | 1.73 µM | 3.48 µM | 0.333 µM | 1.37 µM | 1.59 µM | 4.29 µM
Oc1cccnc1[Se] |  | > 100 µM |  | > 100 µM |  |  |  | > 100 µM |  | > 100 µM |  | > 100 µM |  | > 100 µM |  | > 100 µM |  | > 100 µM |  | > 100 µM
[N-]=[N+]=N[C@H]1C[C@@H](CO)O[C@H]1n1cnc2c(N)ncnc21 |  | > 100 µM |  | > 100 µM |  |  |  | > 100 µM |  |  |  |  |  | > 100 µM |  |  |  | > 100 µM |  | 
NC(=O)C12CC3CC(CC(F)(C3)C1)C2 |  | > 100 µM |  | > 100 µM |  | > 100 µM |  |  |  | > 100 µM |  | > 100 µM |  | > 100 µM |  | > 100 µM |  | > 100 µM |  | > 100 µM
